According to patent US20140315876A1, “BETA-LACTAMASE INHIBITORS” (priority 2013, published 2014):
Structures can show the parent of a compound that is named as a salt.

Experiments:
[1] = system: bacterial strains that express KPC β-lactamases; experiment: Synergy MIC / standard BLI potentiation MIC assay, strains expressing KPC β-lactamases; type: cell-based; settings: more active for at least one KPC strain and/or better spectrum of activity than Avibactam; in the presence of a β-lactam
Experimental: (§1) The experimental protocol was performed according to Clinical and Laboratory Standards Institute (CLSI) guidelines with modifications as described below (CLSI guidelines can be derived from the CLSI document M07-A9 published in January 2012: “Methods for Dilution Antimicrobial Susceptibility Tests for Bacteria That Grow Aerobically; Approved Standard-Ninth Edition”).
(§2) To prepare for MIC testing, frozen glycerol stocks of clinical isolates (Klebsiella pneumoniae, Eschericia coli, Enterobacter spp, Citrobacter spp, or Pseudomonas aeruginosa) were used to streak for isolated colonies on rich, non-selective, tryptic soy agar containing 5% sheep's blood (TSAB). Frozen glycerol stocks of laboratory engineered, isogenic E. coli strains, which contain cloned β-lactamase expressing plasmids were used to streak for isolated colonies on rich, selective LB agar supplemented with 25 μg/mL tetracycline to maintain the plasmid. All strains were incubated at 37° C. for 18-24 hrs.
(§3) On the day of testing, primary cultures were started by scraping off 5-10 colonies from the TSAB plates containing clinical strains or the tetracycline supplemented LB plates containing engineered strains. The clinical strain material was suspended in ˜5 mL of cation adjusted Mueller Hinton Broth (CAMHB) in 14 mL culture tubes. The engineered strain material was suspended in CAMHB (supplemented with 25 μg/mL tetracycline) in 14 mL culture tubes. All strains were incubated at 37° C. with aeration (200 rpm) for ˜2 hrs until the optical density at 600 nm (OD600) was ≧0.1.
(§4) The two compound components of the assay were each diluted in CAMHB and added to the 96-well broth microdilution assay plates. 50 μL of the β-lactam was added to each well of the assay plate in 2-fold dilutions with final concentrations ranging from 128 to 0.13 μg/mL. 25 μL of the BLI compound was added to all wells in the broth microdilution plates at a final concentration of 4 μg/mL. Inoculum cultures were prepared by standardizing the primary cultures to OD600=0.1 and then adding 20 μL of the adjusted primary culture per 1 mL CAMHB for clinical strains or CAMHB (supplemented with tetracycline at 100 μg/mL) for engineered strains, so that the final inoculum density was ˜10^5 colony forming units per milliliter. Diluted inoculum cultures were used to inoculate 25 μL per well in 96-well broth microdilution assay plates. The final volume of each well was 100 μL and contained a β-lactam at different concentrations, a BLI compound at 4 μg/mL concentration, the bacterial culture at an OD600 of approximately 0.001 and when necessary tetracycline at 25 μg/mL.
(§5) Plates were incubated for 18-20 hours at 37° C. with aeration (200 rpm). Following incubation, growth was confirmed visually placing plates over a viewing apparatus (stand with a mirror underneath) and then OD600 was measured using a SpectraMax 340PC384 plate reader (Molecular Devices, Sunnyvale, Calif.). Growth was defined as turbidity that could be detected with the naked eye or achieving minimum OD600 of 0.1. MIC values were defined as the lowest concentration producing no visible turbidity.
(§6) The synergy MIC (sMIC) assay determines the concentration of the BLI required to potentiate the activity of a fixed concentration of a β-lactam antibiotic against β-lactamase producing bacterial strains. The experimental protocol was performed according to Clinical and Laboratory Standards Institute (CLSI) guidelines with modifications as described below (CLSI guidelines can be derived from the CLSI document M07-A9 published in January 2012: “Methods for Dilution Antimicrobial Susceptibility Tests for Bacteria That Grow Aerobically; Approved Standard-Ninth Edition”). […]

[2] = system: bacterial strains that express the class D cephalosporinase OXA-15; experiment: Synergy MIC / standard BLI potentiation MIC assay, strains expressing OXA-15; type: cell-based, E. coli; settings: in the presence of a β-lactam; comparator Avibactam (comparator compound CCC)
Experimental: as §1, §2, §3, §4, §5, §6

Row | SMILES | activity and/or spectrum of activity against bacterial strains that express KPC β-lactamases, compared with Avibactam [1] | activity against bacterial strains that express the class D cephalosporinase OXA-15, compared with Avibactam [2]
1 | N[C@H]1C[C@H](c2nnc([C@@H]3CC[C@@H]4CN3C(=O)N4OS(=O)(=O)O)o2)C1 [Compound 727, (2S,5R)-2-(5-((1r,3S)-3-aminocyclobutyl)-1,3,4-oxadiazol-2-yl)-7-oxo-1,6-diazabicyclo[3.2.1]octan-6-yl hydrogen sulfate] | more active than Avibactam | more active than Avibactam
2 | N[C@H]1C[C@@H](Cc2nnc([C@@H]3CC[C@@H]4CN3C(=O)N4OS(=O)(=O)O)o2)C1 [Compound 728, (2S,5R)-2-(5-(((1s,3R)-3-aminocyclobutyl)methyl)-1,3,4-oxadiazol-2-yl)-7-oxo-1,6-diazabicyclo[3.2.1]octan-6-yl hydrogen sulfate] | more active than Avibactam | more active than Avibactam
3 | N[C@@H]1CC[C@H](c2nnc([C@@H]3CC[C@@H]4CN3C(=O)N4OS(=O)(=O)O)o2)C1 [Compound 729, (2S,5R)-2-(5-((1S,3R)-3-aminocyclopentyl)-1,3,4-oxadiazol-2-yl)-7-oxo-1,6-diazabicyclo[3.2.1]octan-6-yl hydrogen sulfate] | more active than Avibactam | more active than Avibactam
4 | N=C(N)NCC(O)Cc1nnc([C@@H]2CC[C@@H]3CN2C(=O)N3OS(=O)(=O)O)o1 (stereo partly drawn) [Compound 730, (2S,5R)-2-(5-(3-guanidino-2-hydroxypropyl)-1,3,4-oxadiazol-2-yl)-7-oxo-1,6-diazabicyclo[3.2.1]octan-6-yl hydrogen sulfate] | more active than Avibactam | more active than Avibactam
5 | N=C(N)NC[C@@H](O)c1nnc([C@@H]2CC[C@@H]3CN2C(=O)N3OS(=O)(=O)O)o1 [Compound 731, (2S,5R)-2-(5-((R)-2-guanidino-1-hydroxyethyl)-1,3,4-oxadiazol-2-yl)-7-oxo-1,6-diazabicyclo[3.2.1]octan-6-yl hydrogen sulfate] | more active than Avibactam | more active than Avibactam
6 | N=C(N)NC[C@H](O)c1nnc([C@@H]2CC[C@@H]3CN2C(=O)N3OS(=O)(=O)O)o1 [Compound 732, (2S,5R)-2-(5-((S)-2-guanidino-1-hydroxyethyl)-1,3,4-oxadiazol-2-yl)-7-oxo-1,6-diazabicyclo[3.2.1]octan-6-yl hydrogen sulfate] | more active than Avibactam | more active than Avibactam
7 | CNCCCc1nnc([C@@H]2CC[C@@H]3CN2C(=O)N3OS(=O)(=O)O)o1 [Compound 734, (2S,5R)-2-(5-(3-(methylamino)propyl)-1,3,4-oxadiazol-2-yl)-7-oxo-1,6-diazabicyclo[3.2.1]octan-6-yl hydrogen sulfate] | more active than Avibactam | more active than Avibactam
8 | NCCCCc1nnc([C@@H]2CC[C@@H]3CN2C(=O)N3OS(=O)(=O)O)o1 [Compound 735, (2S,5R)-2-(5-(4-aminobutyl)-1,3,4-oxadiazol-2-yl)-7-oxo-1,6-diazabicyclo[3.2.1]octan-6-yl hydrogen sulfate] | more active than Avibactam | more active than Avibactam
9 | O=C1N2C[C@@H](CC[C@H]2c2nnc(CCNCCO)o2)N1OS(=O)(=O)O [Compound 736, (2S,5R)-2-(5-(2-((2-hydroxyethyl)amino)ethyl)-1,3,4-oxadiazol-2-yl)-7-oxo-1,6-diazabicyclo[3.2.1]octan-6-yl hydrogen sulfate] | more active than Avibactam | more active than Avibactam
10 | CC(C)(N)Cc1nnc([C@@H]2CC[C@@H]3CN2C(=O)N3OS(=O)(=O)O)o1 [Compound 737, (2S,5R)-2-(5-(2-amino-2-methylpropyl)-1,3,4-oxadiazol-2-yl)-7-oxo-1,6-diazabicyclo[3.2.1]octan-6-yl hydrogen sulfate] | more active than Avibactam | more active than Avibactam
11 | N=C(N)Nc1nnc([C@@H]2CC[C@@H]3CN2C(=O)N3OS(=O)(=O)O)o1 [Compound 738, (2S,5R)-2-(5-guanidino-1,3,4-oxadiazol-2-yl)-7-oxo-1,6-diazabicyclo[3.2.1]octan-6-yl hydrogen sulfate] | more active than Avibactam | more active than Avibactam
12 | N=C(N)NC1(Cc2nnc([C@@H]3CC[C@@H]4CN3C(=O)N4OS(=O)(=O)O)o2)CC1 [Compound 739, (2S,5R)-2-(5-((1-guanidinocyclopropyl)methyl)-1,3,4-oxadiazol-2-yl)-7-oxo-1,6-diazabicyclo[3.2.1]octan-6-yl hydrogen sulfate] | more active than Avibactam | more active than Avibactam
13 | O=C1N2C[C@@H](CC[C@H]2c2nnc([C@H]3[C@@H]4CNC[C@@H]43)o2)N1OS(=O)(=O)O [Compound 740, (2S,5R)-2-(5-(3-azabicyclo[3.1.0]hexan-6-yl)-1,3,4-oxadiazol-2-yl)-7-oxo-1,6-diazabicyclo[3.2.1]octan-6-yl hydrogen sulfate] | more active than Avibactam | more active than Avibactam
14 | N=C(N)N1CC(Cc2nnc([C@@H]3CC[C@@H]4CN3C(=O)N4OS(=O)(=O)O)o2)C1 [Compound 741, (2S,5R)-2-(5-((1-carbamimidoylazetidin-3-yl)methyl)-1,3,4-oxadiazol-2-yl)-7-oxo-1,6-diazabicyclo[3.2.1]octan-6-yl hydrogen sulfate] | more active than Avibactam | more active than Avibactam
15 | O=C1N2C[C@@H](CC[C@H]2c2nnc(CCC3CNC3)o2)N1OS(=O)(=O)O [Compound 742, (2S,5R)-2-(5-(2-(azetidin-3-yl)ethyl)-1,3,4-oxadiazol-2-yl)-7-oxo-1,6-diazabicyclo[3.2.1]octan-6-yl hydrogen sulfate] | more active than Avibactam | more active than Avibactam
16 | O=C1N2C[C@@H](CC[C@H]2c2nnc(CCCC3CNC3)o2)N1OS(=O)(=O)O [Compound 743, (2S,5R)-2-(5-(3-(azetidin-3-yl)propyl)-1,3,4-oxadiazol-2-yl)-7-oxo-1,6-diazabicyclo[3.2.1]octan-6-yl hydrogen sulfate] | more active than Avibactam | more active than Avibactam
